{"source": "patent US20240366801A1", "about": "“HYPERPO[…] AND PRODUCT” (CAMBRIDGE ENTERPRISE LIMITED, priority 2021, published 2024)", "system": "rat liver", "assay": "13C MR spectra in rat liver after intravenous injection of hyperpolarised solution", "conditions": "1 ml of 42 mM solution, 9.4T MRI", "description": "The data was acquired in preclinical horizontal-bore 9.4T MRI system using a 10-mm diameter 13C surface coil and a series of 20-degree radiofrequency pulses applied every 2 s.", "data": [{"smiles": "CC(O)[13C](=O)O", "note": "(stereo not shown) [[1-13C]lactate, [1-13C]lactic acid]", "values": [{"measurement": "downstream metabolites detected in 13C MR spectra", "value": "downstream metabolites could be detected"}]}]}
